How the values were obtained:
[1] = tested on: human leukemic cell line HL-60; test: Cell differentiation in HL-60 assay (NBT reduction); format: cell-based; details: for concentration of optimum differentiating effect / NBT-reduction inducing capacity relative to the known 1α,25-DHCC: HL-60 cells; for concentration of optimum differentiating effect / induction of differentiation and maturation of HL-60 cells: NBT reduction; for induction of differentiation and maturation of HL-60 cells: 10^-12 to 10^-6 M; for NBT-reduction inducing capacity relative to the known 1α,25-DHCC: FIGS. 2 and 3, potency ratio versus 1α,25-DHCC
Procedure: Vitamin D compounds according to the invention are dissolved in ethanol in concentrations ranging from 10^-12 to 10^-6 M and tested for their capacity to induce cell differentiation in a HL-60 assay. In this assay, biochemical examination of the human leukemic cell line HL-60 is done, in order to establish whether cell differentiation has taken place.
Differentiation is expressed as the maturation parameter nitroblue tetrazolium (NBT) reduction. After culturing with the known 1α,25-DHCC or with vitamin D compounds of the invention, the percentage of cells containing black formazan deposits is determined. An increase in the percentage of NBT reducing cells indicates an increase in cell differentiation.

[2] = target: T1, human vitamin D binding protein (DBP) (Homo sapiens, UniProt P02774); test: Affinity to vitamin D binding protein (competition with 3H-1α,25-DHCC); details: DBP purified from total human serum; 10^-11 to 2.5×10^-6 M; compared to 1α,25-DHCC; FIG. 1
T1 construct: pooled Gc allotypes not specified
T1 sequence (P02774 17-474): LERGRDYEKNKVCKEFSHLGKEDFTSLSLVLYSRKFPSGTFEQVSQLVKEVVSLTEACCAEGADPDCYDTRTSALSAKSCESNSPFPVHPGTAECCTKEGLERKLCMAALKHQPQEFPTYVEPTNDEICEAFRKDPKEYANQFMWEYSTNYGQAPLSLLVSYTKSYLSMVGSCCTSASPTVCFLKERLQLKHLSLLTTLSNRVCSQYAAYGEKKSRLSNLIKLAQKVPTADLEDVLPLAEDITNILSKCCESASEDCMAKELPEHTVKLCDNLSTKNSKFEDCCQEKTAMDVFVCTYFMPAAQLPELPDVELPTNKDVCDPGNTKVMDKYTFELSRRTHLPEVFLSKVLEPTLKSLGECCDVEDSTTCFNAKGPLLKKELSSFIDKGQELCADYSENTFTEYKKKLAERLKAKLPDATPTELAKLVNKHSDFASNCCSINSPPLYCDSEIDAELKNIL
Description: Affinity to vitamin D binding protein.
Vitamin D binding protein (DBP) is the specific carrier for vitamin D and its metabolites in blood. The biological activity of vitamin D compounds depends on their binding to DBP, because strong binding to DBP will reduce the intracellular access to the VDR. Binding to the DBP may also influence the half-life of the vitamin D derivatives in circulation. Weak binders are rapidly metabolized, which is a favourable aspect in topical application.
In the assay, DBP is incubated with ^3 H-1α,25-DHCC and 1α,25-DHCC or with several vitamin D compounds according to the invention. To this purpose, the vitamin compounds are dissolved in ethanol in concentrations ranging from 10^-11 to 2.5×10^-6 M. The percentage bound/unbound ^3 H-1α,25-DHCC is then calculated. DBP is purified from total human serum. The results are shown in the appended FIG. 1. […] [^3 H]1α,25(OH)2 D3 =^3 H-1α,25-DHCC; in the Figure .cndot.=1α,25-DHCC (known compound); .quadrature.=compound 21; Δ=compound 28; o=compound 32 and .diamond.=compound 36.

[3] = target: T2, calf thymus intracellular vitamin D receptor (VDR) (Bos taurus, UniProt Q28037); test: Affinity to intracellular vitamin D receptor (displacement of 3H-1α,25-DHCC); format: binding; details: 10^-13 to 10^-7 M, compared with 1α,25-dihydroxycholecalciferol
T2 sequence (Q28037 1-426): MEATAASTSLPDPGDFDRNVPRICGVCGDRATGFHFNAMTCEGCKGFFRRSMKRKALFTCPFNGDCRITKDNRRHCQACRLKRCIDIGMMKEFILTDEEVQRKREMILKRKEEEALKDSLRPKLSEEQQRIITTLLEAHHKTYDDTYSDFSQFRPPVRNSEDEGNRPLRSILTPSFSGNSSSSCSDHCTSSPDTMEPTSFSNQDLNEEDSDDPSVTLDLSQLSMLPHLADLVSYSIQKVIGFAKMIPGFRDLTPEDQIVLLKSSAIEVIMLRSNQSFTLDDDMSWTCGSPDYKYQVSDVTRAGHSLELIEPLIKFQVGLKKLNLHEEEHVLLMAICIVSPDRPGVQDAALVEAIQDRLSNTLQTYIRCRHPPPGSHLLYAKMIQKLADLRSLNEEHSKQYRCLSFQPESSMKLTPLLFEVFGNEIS
Description: Affinity to intracellular vitamin D receptor.
In this assay, ^3 H-1α,25-dihydroxycholecalciferol (^3 H-1α,25-DHCC), which is specifically bound to the VDR, is replaced by the tested compounds. […] A high VDR-affinity is indicative for a biologically active substance. The tested compounds 21 and 28 have moderate VDR-affinities, whereas tested compound 36 has a weak VDR-affinity.

With `C=C1/C(=C\C=C2/CCC[C@]3(C)[C@@H]([C@H](C)CCCC(C)(C)O)CC[C@@H]23)C[C@@H](O)C[C@@H]1O` [1α,25-DHCC, 1α,25-dihydroxycholecalciferol, reference compound] the “concentration of optimum differentiating effect” value [1] was 10^-8 to 10^-7 M and the “induction of differentiation and maturation of HL-60 cells” value [1] was “induce differentiation and maturation”.

In the case of `C=C1/C(=C\C=C2/CCC[C@@]3(C)[C@H]2CC[C@@]32C[C@H]2CCCC(C)(C)O)C[C@@H](O)C[C@@H]1O` [compound 36], the “concentration of optimum differentiating effect” value [1] is reported as 10^-8 to 10^-7 M, the “NBT-reduction inducing capacity relative to the known 1α,25-DHCC” value [1] is reported as “about 10 times” and the “induction of differentiation and maturation of HL-60 cells” value [1] is reported as “induce differentiation and maturation”. For the same compound, the “binding to the DBP” value [2] was “rather weakly” and the VDR-affinity [3] was “weak”.

`C=C1/C(=C\C=C2/CCC[C@@]3(C)[C@H]2CC[C@@]32C[C@@H]2CCCC(C)(C)O)C[C@@H](O)C[C@@H]1O` [compound 32] was tested, and the “concentration of optimum differentiating effect” value [1] was 10^-8 to 10^-7 M, the “NBT-reduction inducing capacity relative to the known 1α,25-DHCC” value [1] was 3-5 times and the “induction of differentiation and maturation of HL-60 cells” value [1] was “induce differentiation and maturation”. The “binding to the DBP” value [2] was “rather weakly” and the VDR-affinity [3] was “high”.

For `C=C1/C(=C\C=C2/CCC[C@]3(C)/C(=C/CCCC(C)(C)O)CC[C@@H]23)C[C@@H](O)C[C@@H]1O` [compound 28], the “concentration of optimum differentiating effect” value [1] was 10^-8 to 10^-7 M, the “NBT-reduction inducing capacity relative to the known 1α,25-DHCC” value [1] was “as potent as the known 1α,25-DHCC” and the “induction of differentiation and maturation of HL-60 cells” value [1] was “induce differentiation and maturation”. The “binding to the DBP” value [2] was “rather weakly” and the VDR-affinity [3] was “moderate”.

For `C=C1/C(=C\C=C2/CCC[C@]3(C)/C(=C\CCCC(C)(C)O)CC[C@@H]23)C[C@@H](O)C[C@@H]1O` [compound 21], the “concentration of optimum differentiating effect” value [1] was 10^-8 to 10^-7 M, the “NBT-reduction inducing capacity relative to the known 1α,25-DHCC” value [1] was 3-5 times and the “induction of differentiation and maturation of HL-60 cells” value [1] was “induce differentiation and maturation”. For the same compound, the “binding to the DBP” value [2] was “rather weakly” and the VDR-affinity [3] was “moderate”.

From patent US5929056A, “Vitamin D compounds and method of preparing these compounds” (Duphar International Research B.V., priority 1994, dated 1999)
